One compound from patent US12077503B2, “Substituted cyclic amides and their use as herbicides” (FMC CORPORATION, priority 2015, dated 2024) can be followed below.

Holding throughout (format): in vivo
The test system of assay [1] is Kochia (Kochia scoparia). The assay can be described thus: Test A preemergence. Particulars: Bassia scoparia, pre-emergence, 240 h, preemergence, read-out: Plant response rating, Kochia. An outline of the steps:
(§1)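 Visual injury, scored on a 0–100 scale relative to untreated controls, was recorded about 10 d after application. Treatments were a preemergence soil spray over planted seeds or a postemergence spray on plants at the one- to two-leaf stage, 2 to 10 cm tall, all in loam soil–sand blend in the greenhouse.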

The subject of assay [2] is giant foxtail (Setaria faberii). Nature of the assay: Test A preemergence. Particulars: Setaria faberi, pre-emergence, 240 h, preemergence, read-out: Plant response rating, Foxtail, Giant. An outline of the steps: as §1
The test system of assay [3] is pigweed (Amaranthus retroflexus). Nature of the assay: Test A preemergence. Particulars: Amaranthus retroflexus, pre-emergence, 240 h, preemergence, read-out: Plant response rating, Pigweed.
Assay [4] concerns ragweed (common ragweed, Ambrosia elatior). Nature of the assay: Test A preemergence. The settings on record: Ambrosia artemisiifolia, pre-emergence, 240 h, preemergence, read-out: Plant response rating, Ragweed. An outline of the steps:
as §1

Assay [5] concerns ryegrass, Italian (Italian ryegrass, Lolium multiflorum). The assay can be described thus: Test A preemergence. The settings on record: Lolium multiflorum, pre-emergence, 240 h, preemergence, read-out: Plant response rating, Ryegrass, Italian. An outline of the steps:
as §1

Assay [6] relates to Galium (catchweed bedstraw, Galium aparine). The assay can be described thus: Test A postemergence. Particulars: Galium, post-emergence, 240 h, 125 g ai/ha, postemergence; visual injury after approximately 10 d; 0 to 100 scale (0 no effect, 100 complete control); read-out: Plant response rating, Galium. An outline of the steps:
as §1

The test system of assay [7] is Kochia (Kochia scoparia). The assay can be described thus: Test A postemergence. The settings on record: Bassia scoparia, post-emergence, 240 h, 125 g ai/ha, postemergence; visual injury after approximately 10 d; 0 to 100 scale (0 no effect, 100 complete control); read-out: Plant response rating, Kochia. An outline of the steps:
as §1

In assay [8] the test system is barnyardgrass (Echinochloa crus-galli). The assay can be described thus: Test A postemergence. The settings on record: Echinochloa crus-galli, post-emergence, 240 h, 125 g ai/ha, postemergence; visual injury after approximately 10 d; 0 to 100 scale (0 no effect, 100 complete control); read-out: Plant response rating, Barnyardgrass. An outline of the steps: as §1
For assay [9], the system named is blackgrass (Alopecurus myosuroides). The assay can be described thus: Test A postemergence. Particulars: Alopecurus myosuroides, post-emergence, 240 h, 125 g ai/ha, postemergence; visual injury after approximately 10 d; 0 to 100 scale (0 no effect, 100 complete control); read-out: Plant response rating, Blackgrass. An outline of the steps:
as §1

Another assay concerns corn (Zea mays). Nature of the assay: Test A postemergence. Particulars: Zea mays, post-emergence, 240 h, 125 g ai/ha, postemergence; visual injury after approximately 10 d; 0 to 100 scale (0 no effect, 100 complete control). The procedure, abridged:
as §1

Assay [10] concerns giant foxtail (Setaria faberii). The assay can be described thus: Test A postemergence. Particulars: Setaria faberi, post-emergence, 240 h, 125 g ai/ha, postemergence; visual injury after approximately 10 d; 0 to 100 scale (0 no effect, 100 complete control); read-out: Plant response rating, Foxtail, Giant. An outline of the steps: as §1
In assay [11] the test system is pigweed (Amaranthus retroflexus). Nature of the assay: Test A postemergence. Particulars: Amaranthus retroflexus, post-emergence, 240 h, 125 g ai/ha, postemergence; visual injury after approximately 10 d; 0 to 100 scale (0 no effect, 100 complete control); read-out: Plant response rating, Pigweed. The procedure, abridged:
as §1

Assay [12] concerns ragweed (common ragweed, Ambrosia elatior). Nature of the assay: Test A postemergence. The settings on record: Ambrosia artemisiifolia, post-emergence, 240 h, 125 g ai/ha, postemergence; visual injury after approximately 10 d; 0 to 100 scale (0 no effect, 100 complete control); read-out: Plant response rating, Ragweed. The procedure, abridged:
as §1

Assay [13] deals with ryegrass, Italian (Italian ryegrass, Lolium multiflorum). The assay can be described thus: Test A postemergence. Particulars: Lolium multiflorum, post-emergence, 240 h, 125 g ai/ha, postemergence; visual injury after approximately 10 d; 0 to 100 scale (0 no effect, 100 complete control); read-out: Plant response rating, Ryegrass, Italian. The procedure, abridged:
as §1

For assay [14], the system named is wheat (Triticum aestivum). Nature of the assay: Test A postemergence. Particulars: Triticum aestivum, post-emergence, 240 h, 125 g ai/ha, postemergence; visual injury after approximately 10 d; 0 to 100 scale (0 no effect, 100 complete control); read-out: Plant response rating, Wheat. An outline of the steps: as §1
Where [15] appears, read: 125 g ai/ha, visual rating after approx. 10 d, 0 to 100 scale where 0 is no effect and 100 is complete control.
The mark [16] stands for this setting: 500 g ai/ha, 0 to 100 scale, 0 = no effect, 100 = complete control.

Turning to `CN1C[C@H](c2ccc3c(c2)CCC3)[C@@H](C(=O)Nc2ccccc2F)C1=O` [Compound 742], the pest or weed control at 125 g/ha was found to be 60% in the assay with Kochia (Kochia scoparia) [1] (setting [15]); 90% in assay [2] (setting [15]); 20% in assay [3] (setting [15]); 20% in assay [4] (setting [15]); 50% in [5] (setting [15]); 50% in [6]. For the same compound, the pest or weed control at 125 g/ha amounted to 30% in the assay on Kochia (Kochia scoparia) [7]; 90% in assay [8]; 40% in assay [9]; 90% in assay [10]; 0% in assay [11]; 20% in assay [12]. In [13], the pest or weed control at 125 g/ha was determined as 60%. For the same compound, the pest or weed control at 500 g/ha worked out at 90% in the assay with Kochia (Kochia scoparia) [1] (setting [16]); 90% in assay [2] (setting [16]); 50% in assay [3] (setting [16]); 80% in assay [4] (setting [16]); 90% in assay [5] (setting [16]). In the assay on corn (Zea mays), this compound yielded a Corn plant response rating (crop injury, 0 = no effect, 100 = complete kill) at 125 g/ha of 70%. In [14], the plant injury at 125 g/ha came to 60%.
